pIC50: −log10 of the molar value. Like-named read-outs stand apart in the source and are kept apart here.
What was measured:
[1] = system: cisplatin resistant ovarian cancer cell lines HEY and OVCA-3 and primary cells from patients with recurrent and resistant disease; assay: Cell viability (XTT) of chemoresistant ovarian cancer cells exposed to USP14 inhibitor; format: cell-based, human; conditions: increasing concentrations, 48 hours
Description: Inhibition of USP14 selectively kills ovarian cancer cell lines resistant to cisplatin and primary ovarian cancer cells derived from patients with recurrent and chemoresistant disease. Sensitivity to inhibition of USP14 was evaluated in exponentially growing human fibroblasts, in the exponentially growing cisplatin resistant ovarian cancer cell lines HEY and OVCA-3 and in two exponentially growing primary cells derived from patient with recurrent and resistant (to carboplatin) disease. Primary cells were obtained according to a method recently described in two manuscripts.

ovarian cancer cells = assay: Active caspase-3 levels in ovarian cancer cells; format: cell-based; conditions: increasing concentrations
[2] = system: HEC155 endometrial cancer cell line; assay: Cell viability assay (WST-1), HEC155; format: cell-based; conditions: for pIC50: HEC155, 48 hours exposure
Description: (§1) Cell viability was determined by 2,3-bis[2-methoxy-4-nitro-5-sulfophenyl]-2H-tetrazolium-5-carboxanilide inner salt assay as previously described. Briefly, cells were seeded at the concentration of 1.000 per well in 100 μL medium in 96-well plate and treated with the indicated concentrations of drugs. At the indicated time points, cells were incubated according to the manufacturer's protocol with the WST-1 labeling mixture for 2 hours. Formazan dye was quantified using a spectrophotometric plate reader to measure the absorbance at 450 nm (ELISA reader 190; Molecular Devices).
(§2) The next step was to investigate whether USP14 is a molecular target for endometrial cancer cells. To this end, the expression levels of USP14 in a panel of endometrial cancer cell lines including HEC155, EFE184 and ECC1 was first measured. These cells were chosen as they represent the most aggressive and most likely to recur endometrial cancer types. As shown in FIG. 4A (left panel), all cell lines tested expressed USP14 with HEC155 and ECC1 having the highest levels. Next. ECC1 and HEC155 endometrial cancer cells were exposed to increasing concentrations of the small-molecule inhibitor […] and the residual cell viability was measured after a period of 48 hours.
(§3) In the clinical setting, recurrent endometrial cancer is usually resistant to chemotherapy. Previous studies have reported that among endometrial cancer cell lines, HEC155 and ECC1 have the highest levels of LCAM, a marker for endometrial cancer recurrence. […] Thus, the IC50 levels for carboplatin treatment of HEC155 and ECC1 cells was measured.

[3] = system: ECC1 endometrial cancer cell line; assay: Cell viability assay (WST-1), ECC1; format: cell-based; conditions: for pIC50: ECC1, 48 hours exposure
Description: as §1, §2, §3

[4] = system: ubiquitin-dependent protein degradation in ECC1 cells; assay: Western blot for accumulation of poly-ubiquitinated proteins, ECC1; format: cell-based
Description: (§4) Total cellular protein (10-20 μg) from each sample was separated by SDS-PAGE, transferred to PVDF membranes and subjected to Western blot analysis. Antibodies for Western blot analysis were obtained by the following commercial sources: anti-USP14 (Bethyl Laboratories), anti-ubiquitin (Santa Cruz Biotechnology), anti-β-actin (Sigma). Peroxidase-linked anti-mouse Immunoglobulin G and peroxidase-linked anti-rabbit Immunoglobulin G were from Amersham.
(§5) USP14 is a proteasome-associated deubiquitinating enzyme whose role is to remove ubiquitin molecules from targeted proteins prior to degradation by the 20S catalytic activities of the proteasome. […] Thus, the consequences of USP14 inhibition on ubiquitin-dependent protein degradation in endometrial cancer cells was investigated. To this end, ECC1 and HEC155 cells were exposed to 150 nM or 250 nM VLX1570, respectively, over a period of 24 hours and the effect on cellular protein ubiquitination was evaluated by Western blot analysis after 0, 2, 8 or 12 hours from drug exposure. […] Quantifications of the changes in high molecular weight ubiquitin species in each respective cell line, versus control, are given in FIGS. 5B and 5D (top panels).
(§6) Next, endometrial cancer cell lines were exposed to increasing concentrations of VLX1570 ([…] for ECC1 and HEC155, respectively) over a period of 24 hours. The effect on accumulation of poly-ubiquitinated proteins was evaluated by Western blot. […] Quantifications of the changes in high-molecular weight ubiquitin species in dose-dependent fashion are given in FIGS. 5B and 5D (bottom panels).

[5] = system: ubiquitin-dependent protein degradation in HEC155 cells; assay: Western blot for accumulation of poly-ubiquitinated proteins, HEC155; format: cell-based
Description: as §4, §5, §6

[6] = system: HEC155 endometrial cancer cells; assay: Cell cycle distribution by propidium iodide flow cytometry, HEC155; format: cell-based; conditions: HEC155, 300 nM, 24 hours
Description: (§7) Cell cycle status following treatment with drug or vehicle alone was determined via flow cytometry analysis. Specifically, cells were harvested at indicated time points and fixed in 70% ethanol on ice for 2 hours. Following washing with PBS, cells were stained with 0.1% (m/v) propidium iodide in PBS-T. Apoptosis was measured using antibodies against active Caspase-3 (BD Pharmingen) or Annexin V (BD Pharmingen) which were combined with propidium iodide staining (Sigma-Aldrich). For apoptosis assays, samples were fixed and stained according to manufacturer's instructions. Fluorescence was measured with a FACSCantoII flow cytometer (Becton Dickinson) and analyzed with FlowJo software.
(§8) The USP14 modulates levels of cell cycle regulatory proteins whose dysregulation is expected to affect the cell cycle. This is further supported by the findings showing a strong correlation between USP14 and Ki67 staining in clinical specimens of endometrial cancer. Thus, the hypothesis that inhibition of USP14 would result in endometrial cancer cells failing to progress through the cell cycle was tested. To this end, HEC155 and ECC1 endometrial cancer cells were incubated with the USP14 inhibitor VLX1570 over a period of 24 hours and the cell cycle status was analyzed by flow cytometry after staining with propidium iodide. […]

[7] = system: ECC1 endometrial cancer cells; assay: Cell cycle distribution by propidium iodide flow cytometry, ECC1; format: cell-based; conditions: ECC1, 300 nM, 24 hours
Description: as §7, §8

[8] = system: ECC1 endometrial cancer cells; assay: Apoptosis by flow cytometry (active caspase-3, Annexin V, propidium iodide), ECC1; format: cell-based
Description: as §7
(§9) Next, the fate of ECC1 and HEC155 endometrial cancer cells following VLX1570-induced cell cycle arrest was evaluated. Specifically, it was tested whether the reduction in cell viability following drug treatment is consistent with onset of apoptosis. The expression levels of active caspase-3 in control versus VLX1570 treated cells was measured. Importantly, caspase-3 is an active cell-death protease involved in the execution phase of apoptosis, where cells undergo morphological changes such as DNA fragmentation, chromatin condensation and apoptotic body formation.
(§10) Similarly, the fraction of cells taking up propidium iodide, a feature of both advanced apoptosis and necrosis, is elevated in […]. These findings support the hypothesis that pharmacological inhibition of USP14 triggers apoptosis in endometrial cancer cells.

[9] = system: HEC155 endometrial cancer cells; assay: Apoptosis by flow cytometry (active caspase-3, Annexin V, propidium iodide), HEC155; format: cell-based
Description: as §7, §9, §10

[10] = system: COV362 ovarian cancer cells; assay: Cell viability of sensitive and carboplatin-resistant COV362; format: cell-based
Description: (§11) FIG. 11. COV362 and ES-2 carboplatin-resistant clones. Residual cell viability of sensitive and resistant COV362 and ES-2 ovarian cancer cells exposed to the indicated concentrations of carboplatin over a period of 48 hours.
(§12) FIG. 12. Carboplatin resistant COV362 and ES-2 ovarian cancer cells are sensitive to USP14 inhibition. Residual cell viability of resistant COV362 and ES-2 ovarian cancer cells exposed to the indicated concentrations of the FDA approved USP14 inhibitor VLX1570 over a period of 48 hours. The structure of VLX1570 is:
(§13) Carboplatin-resistant ovarian cancer cell lines are sensitive to pharmacological inhibition of USP14. Two ovarian cancer cell lines, COV-362 and ES-2 were exposed to carboplatin according to the method described in FIG. 9 and the resulting USP14 overexpressing clones were subjected to cell viability assay to assess the extent of chemoresistance. […] Next, the sensitivity of COV362 and ES-2 resistant clones to the FDA approved USP14 inhibitor VLX1570 was determined.

[11] = system: ES-2 ovarian cancer cells; assay: Cell viability of sensitive and carboplatin-resistant ES-2; format: cell-based
Description: as §11, §12, §13

[12] = system: ECC1 endometrial cancer cell line; assay: Multi-step carboplatin chemoresistance model, ECC1; format: cell-based
Description: USP14 is co-expressed with ETM makers during the multi-stage process leading to chemoresistance. Acquisition of aggressive phenotype and chemoresistance is a multi-stage process whereby the subpopulation of cells surviving drug treatment give rise to cells characterized by increased in migratory behavior, proliferation rate and chemoresistance via a transition accompanied by increase in stem cell and epithelial-mesenchymal transition (EMT) markers. This model was recapitulated in ECC1 endometrial cancer cell line and the temporal USP14 expression was evaluated during this multi-step process. Specifically. ECC1 cells were exposed to two rounds of carboplatin treatment (20 μM) over the period of two weeks. The first round resulted with approx. 60% of cell death. The second round resulted with approx. 90% of cell death. Consistent with what previously shown, the surviving population was characterized by giant, polyploidy, chemoresistant cells whose numbers remained similar over the course of the following two weeks. […] Next, the expression levels of USP14 and the EMT marker vimentin were evaluated in the initial population (chemosensitive tumor) and in two of the chemoresistant clones. USP14 overexpression is temporally associated to the expression of the EMT marker vimentin.

[13] = system: carboplatin sensitive cancer cells; assay: Multi-step carboplatin chemoresistance model in vitro (Example 2); format: cell-based; conditions: 10 μM, two rounds over two weeks
Description: Multi-step process leading to recurrence can be recapitulated in vitro and results with up-regulation of USP14. Carboplatin chemoresistance was recapitulated in vitro according to the model schematized in FIG. 9. Specifically, carboplatin sensitive cancer cells were exposed to two rounds of carboplatin treatment (10 μM) over the period of two weeks. The first round resulted with approx. 60% of cell death. The second round resulted with approx. 90% of cell death. This is consistent with the dramatic reduction in tumor burden in chemosensitive patients treated with neoadjuvant chemotherapy. […] As shown in FIG. 9 the chemotherapy surviving population was characterized by stem like giant, polyploidy, chemoresistant cells whose numbers remained similar over the course of the following two weeks. This population was the precursor of clones of cells that survived in presence of carboplatin. Strikingly, when the expression levels of USP14 and the […] marker vimentin were evaluated in the initial population (chemosensitive tumor) and in two of the chemoresistant clones isolated. USP14 overexpression is temporally associated to over-expression of the […] marker, vimentin.

[14] = read-out: IC50, inhibition of cell viability
[15] = read-out: IC50 for carboplatin, cell viability
[16] = ECC1, 20 μM, two rounds over two weeks

## O=C1/C(=C/c2ccc([N+](=O)[O-])cc2)CNC/C1=C\c1ccc([N+](=O)[O-])cc1 [RA-9, (3E, 5E)-3,5-bis(nitrobenzylidene)piperidin-4-one]
[1]
  effect on cell viability of chemoresistant ovarian cancer cells: killed chemoresistant ovarian cancer cells
Ovarian cancer cells
  Caspase-3 activation: activation of Caspase-3

## C=CC(=O)N1CC/C(=C\c2ccc(F)c([N+](=O)[O-])c2)C(=O)/C(=C/c2ccc(F)c([N+](=O)[O-])c2)C1 [VLX1570]
[2]; HEC155
  anti-proliferative concentration, times lower than that required for carboplatin: 500 times
[2]; [14]
  pIC50: 6.74
[3]; ECC1
  anti-proliferative concentration, times lower than that required for carboplatin: 800 times
[3]; [14]
  pIC50: 6.93
[4]; ECC1, 0-150 μM, 24 hours
  inhibition of ubiquitin-dependent protein degradation (dose course): dose-dependent inhibition of ubiquitin-dependent protein degradation
[4]; ECC1, 150 nM
  start of accumulation of poly-ubiquitinated proteins after drug exposure: two
[4]; ECC1, 150 nM, 0, 2, 8 or 12 hours
  accumulation of poly-ubiquitinated proteins (time course): dose-dependent accumulation of poly-ubiquitinated proteins
[5]; HEC155, 0-250 μM, 24 hours
  inhibition of ubiquitin-dependent protein degradation (dose course): dose-dependent inhibition of ubiquitin-dependent protein degradation
[5]; HEC155, 250 nM
  start of accumulation of poly-ubiquitinated proteins after drug exposure: two
[5]; HEC155, 250 nM, 0, 2, 8 or 12 hours
  accumulation of poly-ubiquitinated proteins (time course): dose-dependent accumulation of poly-ubiquitinated proteins
[6]
  percentage of cells in the G2/M phase versus controls: increase in the percentage of cells in the G2/M phase
[7]
  percentage of cells in the G2/M phase, treated versus control: nearly double
[8]; ECC1, 300 nM, 24 hours
  Annexin V staining cells: increase of Annexin V staining cells
  fraction of cells taking up propidium iodide: elevated
[8]; ECC1, 24 hours, versus mock
  levels of active caspase-3: increased levels of active caspase-3
[9]; HEC155, 300 nM, 24 hours
  Annexin V staining cells: increase of Annexin V staining cells
  fraction of cells taking up propidium iodide: elevated
[9]; HEC155, 24 hours, versus mock
  levels of active caspase-3: increased levels of active caspase-3
[10]; carboplatin-resistant COV362
  killing concentration, fold lower than the one required with carboplatin: approx. 10 fold
[10]; carboplatin-resistant COV362 clones, 48 hours, read-out: IC50, inhibition of cell viability
  pIC50: 5.06
[11]; carboplatin-resistant ES-2
  killing concentration, fold lower than the one required with carboplatin: approx. 10 fold
[11]; carboplatin-resistant ES-2 clones, 48 hours, read-out: IC50, inhibition of cell viability
  pIC50: 5.15

## N.N.O=C([O-])C1(C(=O)[O-])CCC1.[Pt+2] [carboplatin]
[2]; [15]
  pIC50: 4.11
[3]; [15]
  pIC50: 4.01
[12]; [16]
  cell death, first round of carboplatin treatment: approx. 60%
  cell death, second round of carboplatin treatment: approx. 90%
[12]; ECC1 chemoresistant clones
  IC50 of chemoresistant clones as compared to the initial population: > 3 fold
[13]
  cell death, first round of carboplatin treatment: approx. 60%
  cell death, second round of carboplatin treatment: approx. 90%
[10]; COV-362, 48 hours exposure
  decrease in carboplatin sensitivity, resistant versus sensitive cells: > 4 fold
[11]; ES-2, 48 hours exposure
  decrease in carboplatin sensitivity, resistant versus sensitive cells: > 3 fold
